Experimental findings from patent publication US10350213B2 (AI Therapeutics, Inc., priority 2015, dated 2019) are described below.

Assay [1] deals with WSU-DLCL2 (Human Diffuse Large B Cell Lymphoma -GCB). As to the kind of experiment: CellTiterGlo cell viability assay. In kind it is cell-based. The following applies: Homo sapiens, WSUDLCL2, 72 h, three-day assay, read-out: IC50 (nM) WSU-DLCL2. (Cellular ATP, detected with luciferase, serves as a proxy for viable cell number.)
The test system of assay [2] is SUDHL-4 (Human Diffuse Large B Cell Lymphoma -GCB). The experiment in a line: CellTiterGlo cell viability assay. The following applies: Homo sapiens, 72 h; SU-DHL-4; three-day assay; read-out: IC50 (nM) SU-DHL-4. In kind it is cell-based.

Consider `CC1(C)CCC(CN2CCN(c3ccc(C(=O)NS(=O)(=O)c4ccc(NCC5CCOCC5)c([N+](=O)[O-])c4)c(Oc4cnc5[nH]ccc5c4)c3)CC2)=C(c2ccc(Cl)cc2)C1` [ABT-199], for which the IC50 was determined as 3370 nM in assay [1] and 212 nM in assay [2].

In the case of `O=C(/C=C\n1cnc(-c2cc(C(F)(F)F)cc(C(F)(F)F)c2)n1)NNc1cnccn1` [KPT-330], the IC50 turned out to be 165 nM in assay [1] and 93 nM in assay [2].

As to `C[C@H](Nc1ncnc2nc[nH]c12)c1cc2cccc(Cl)c2c(=O)n1-c1ccccc1` [duvelisib], the half-maximal inhibitory concentration (IC50) stood at 863 nM in assay [1] and 13 nM in assay [2].

With `C=CC(=O)N1CCC[C@@H](n2nc(-c3ccc(Oc4ccccc4)cc3)c3c(N)ncnc32)C1` [ibrutinib], the values for the IC50 in assay [1] and in assay [2] were 747 nM and 718 nM, respectively.

As to `CC[C@H](Nc1ncnc2[nH]cnc12)c1nc2cccc(F)c2c(=O)n1-c1ccccc1` [idelalisib], the IC50 worked out at 6150 nM in assay [1] and 2030 nM in assay [2].

A word on the IC50: it is the midpoint of a concentration-inhibition curve.
